Eight molecules from US7396946B2, “Compound for treatment of external secretion disorders” (Sucampo AG, priority 1999, dated 2008) can be followed below.

This assay concerns normal rabbits. The assay is described as follows: Effect on whole tear secretion of normal rabbits, rate of increase (Test Example 5). Format: in vivo, Male Japanese albino rabbits. The following applies: 30 μl/eye single, 2 hours after the instillation compared with before (0 hour), 4 eyes. The procedure:
Male Japanese albino rabbits were used.
(2) Method of Administration
Ophthalmic solution comprising an active ingredient of the present invention was prepared and used as a test composition.
Each of the compositions was instilled to the eye singly at the amount of 30 μl/eye.
Amount of the Tear Secretion
Before (0 hour) and 2 hours after the instillation, the whole tear secretion was determined.
Under no anesthetization, one edge of the Schirmer's test strip (Showa Yakuhin Kako Co., Ltd.) was inserted into the conjunctival sac of the each test animal. One minute after, the strip was removed and the length of the moisted part was read from the scale provided on the strip to determine the amount of whole tear secretion.
The rate (%) of increased amount of whole tear secretion was calculated at the 2 hours after the instillation compared with the before (0 hour).

Consider `CCCC(F)(F)C(=O)C=CCC1C(O)CC(=O)C1CCCCCCC(=O)OC` (centres unmarked) [Compound 1, 15-dehydroxy-13,14-dihydro-14,15-dehydro-16keto-17,17-difluoro-PGE1-methyl ester], for which the “Rate of the increased whole tear secretion” value (30 μg/ml ophthalmic solution) is 40.7%.
In the case of `CCCCCC(=O)CC[C@H]1[C@H](O)CC(=O)[C@@H]1CCCCCCC(=O)O` [Compound 6, 13,14-dihydro-15-keto-PGE1], the “Rate of the increased whole tear secretion” value (100 μg/ml ophthalmic solution) worked out at 44.0%.
As to `CCCCC(F)(F)C(=O)CCC1CCC(=O)C1CCCCCCC(=O)O` (centres unmarked) [Compound 5, 11-dehydroxy-13,14-dihydro-15-keto-16,16-difluoro-PGE1], the “Rate of the increased whole tear secretion” value (3 ug/ml ophthalmic solution) was 43.5%.
In the case of `CCCCC(F)(F)C(=O)CCC1C(O)CC(=O)C1C/C=C\CCCC(=O)O` (centres unmarked) [Compound 8, 13,14-dihydro-15-keto-16,16-difluoro-PGE2], the “Rate of the increased whole tear secretion” value (1 μg/ml ophthalmic solution) was 24.8%.
On to `CCCCCCC(F)(F)C(=O)CCC1C(O)CC(=O)C1CCCCCCCCC(=O)OC(C)C` (centres unmarked) [Compound 7, 2-decarboxy-2-(2-carboxyethyl)-13,14-dihydro 15-keto-16,16-difluoro-20-ethyl-PGE1-isopropyl ester], for which, for the setting “2O00 μg/ml ophthalmic solution”, the “Rate of the increased whole tear secretion” value was determined as 56.9%.
Turning to `CCCCC(F)(F)C(=O)CCC1C(O)CC(O)C1C/C=C\CCCC(=O)OC` (centres unmarked) [Compound 4, 13,14-dihydro-15-keto-16,16-difluoro-PGF2a-Methyl ester], the “Rate of the increased whole tear secretion” value (3 ug/ml ophthalmic solution) is given as 61.8%.
Regarding “2-decarboxy-2-(2-carboxyethyl)-13,14-dihydro difluoro-PGE1 [Compound 3]”, the “Rate of the increased whole tear secretion” value (10 μg/ml ophthalmic solution) came to 52.0%.
The same measure, in the same setting: in the case of `CCCCCCC(F)(F)C(=O)CCC1C(O)CC(=O)C1CCCCCCC(=O)O` (centres unmarked) [Compound 2, 13,14-dihydro-15-keto-16,16-difluoro-20-ethyl-PGE1] it was 52.5%.
